{"source": "PubChem BioAssay AID1259409", "about": "(Chemical Carcinogenesis Research Information System (CCRIS), 2018)", "origin": "cited, not measured here", "test_system": "rodent chemically induced tumor inhibition, incidence and multiplicity", "test": "CCRIS tumor inhibitor studies", "details": "Dose [Inhibitor]: 0, Route [Inhibitor]: ORAL"}
{"smiles": "O=C(O)c1ccc(O)c(O)c1", "values": [{"measurement": "tumour outcome (control, treated, inhibition, significance)", "setting": "Carcinogen: N-BUTYL-N-(4-HYDROXYBUTYL)NITROSAMINE, 3817-11-6, 2000 PPM IN DIET FOR 33 WK BEGINNING 1 WK POST CARCINOGEN TREATMENT (STUDY DURATION: 41 WK), Species: RAT, Strain/Sex: F344/MALE, Target Tissue: Type of Lesion: BLADDER: CARCINOMA, Dose [Carcinogen]: 0.05% IN DRINKING WATER FOR 6 WK, Promoter: NONE USED", "value": "17/22 (77%), 11/27 (41%), 47%, p<0.03"}, {"measurement": "tumour outcome (control, treated, inhibition, significance)", "setting": "Carcinogen: N-BUTYL-N-(4-HYDROXYBUTYL)NITROSAMINE, 3817-11-6, 2000 PPM IN DIET FOR 33 WK BEGINNING 1 WK POST CARCINOGEN TREATMENT (STUDY DURATION: 41 WK), Species: RAT, Strain/Sex: F344/MALE, Target Tissue: Type of Lesion: BLADDER: PAPILLOMA, Dose [Carcinogen]: 0.05% IN DRINKING WATER FOR 6 WK, Promoter: NONE USED", "value": "1/22 (5%), 1/27 (4%), 20%, not significant"}, {"measurement": "tumour outcome (control, treated, inhibition, significance)", "setting": "Carcinogen: N-METHYL-N-NITROSOUREA, 684-93-5, 1000 PPM IN DIET FOR 14 WK BEGINNING 1 WK PRIOR TO CARCINOGEN TREATMENT (STUDY DURATION: 32 WK), Species: RAT, Strain/Sex: F344/MALE, Target Tissue: Type of Lesion: GLANDULAR STOMACH: ADENOCARCINOMA, Dose [Carcinogen]: 400 PPM IN DRINKING WATER FOR 12 WK, Promoter: NONE USED", "value": "59%, 18%, 69%, p<0.05"}, {"measurement": "tumour outcome (control, treated, inhibition, significance)", "setting": "Carcinogen: N-METHYL-N-NITROSOUREA, 684-93-5, 1000 PPM IN DIET FOR 14 WK BEGINNING 1 WK PRIOR TO CARCINOGEN TREATMENT (STUDY DURATION: 36 WK), Species: RAT, Strain/Sex: F344/MALE, Target Tissue: Type of Lesion: GLANDULAR STOMACH: ADENOCARCINOMA, Dose [Carcinogen]: 400 PPM IN DRINKING WATER FOR 12 WK, Promoter: NONE USED", "value": "13/22 (59%), 4/22 (18%), 69%, p<0.05"}, {"measurement": "tumour outcome (control, treated, inhibition, significance)", "setting": "Carcinogen: N-NITROSOBIS(2-OXOPROPYL)AMINE, 60599-38-4, 500 PPM IN DIET FOR 49 WK BEGINNING 1 WK POST CARCINOGEN LAST TREATMENT (STUDY DURATION: 51 WK), Species: HAMSTER, Strain/Sex: SYRIAN/FEMALE, Target Tissue: Type of Lesion: KIDNEY: ADENOCARCINOMA, Dose [Carcinogen]: 20 MG/KG BW 1/WK FOR 2 WK", "value": "7%, 7%, 0%, not significant"}, {"measurement": "tumour outcome (control, treated, inhibition, significance)", "setting": "Carcinogen: N-NITROSOBIS(2-OXOPROPYL)AMINE, 60599-38-4, 500 PPM IN DIET FOR 49 WK BEGINNING 1 WK POST CARCINOGEN LAST TREATMENT (STUDY DURATION: 51 WK), Species: HAMSTER, Strain/Sex: SYRIAN/FEMALE, Target Tissue: Type of Lesion: LIVER: CHOLANGIOCELLULAR CARCINOMA, Dose [Carcinogen]: 20 MG/KG BW 1/WK FOR 2 WK", "value": "65.5%, 59%, 12%, not significant"}, {"measurement": "tumour outcome (control, treated, inhibition, significance)", "setting": "Carcinogen: N-NITROSOBIS(2-OXOPROPYL)AMINE, 60599-38-4, 500 PPM IN DIET FOR 49 WK BEGINNING 1 WK POST CARCINOGEN LAST TREATMENT (STUDY DURATION: 51 WK), Species: HAMSTER, Strain/Sex: SYRIAN/FEMALE, Target Tissue: Type of Lesion: LIVER: HEMANGIOMA, Dose [Carcinogen]: 20 MG/KG BW 1/WK FOR 2 WK", "value": "3%, 0%, 100%, not significant"}, {"measurement": "tumour outcome (control, treated, inhibition, significance)", "setting": "Carcinogen: N-NITROSOBIS(2-OXOPROPYL)AMINE, 60599-38-4, 500 PPM IN DIET FOR 49 WK BEGINNING 1 WK POST CARCINOGEN LAST TREATMENT (STUDY DURATION: 51 WK), Species: HAMSTER, Strain/Sex: SYRIAN/FEMALE, Target Tissue: Type of Lesion: LIVER: HEPATOCELLULAR ADENOMA, Dose [Carcinogen]: 20 MG/KG BW 1/WK FOR 2 WK", "value": "72%, 79%, -9%, not significant"}, {"measurement": "tumour outcome (control, treated, inhibition, significance)", "setting": "Carcinogen: N-NITROSOBIS(2-OXOPROPYL)AMINE, 60599-38-4, 500 PPM IN DIET FOR 49 WK BEGINNING 1 WK POST CARCINOGEN LAST TREATMENT (STUDY DURATION: 51 WK), Species: HAMSTER, Strain/Sex: SYRIAN/FEMALE, Target Tissue: Type of Lesion: LIVER: HEPATOCELLULAR CARCINOMA, Dose [Carcinogen]: 20 MG/KG BW 1/WK FOR 2 WK", "value": "17%, 14%, 20%, not significant"}, {"measurement": "tumour outcome (control, treated, inhibition, significance)", "setting": "Carcinogen: N-NITROSOBIS(2-OXOPROPYL)AMINE, 60599-38-4, 500 PPM IN DIET FOR 49 WK BEGINNING 1 WK POST CARCINOGEN LAST TREATMENT (STUDY DURATION: 51 WK), Species: HAMSTER, Strain/Sex: SYRIAN/FEMALE, Target Tissue: Type of Lesion: LUNG: ADENOCARCINOMA, Dose [Carcinogen]: 20 MG/KG BW 1/WK FOR 2 WK", "value": "33%, 33%, 0%, not significant"}, {"measurement": "tumour outcome (control, treated, inhibition, significance)", "setting": "Carcinogen: N-NITROSOBIS(2-OXOPROPYL)AMINE, 60599-38-4, 500 PPM IN DIET FOR 49 WK BEGINNING 1 WK POST CARCINOGEN LAST TREATMENT (STUDY DURATION: 51 WK), Species: HAMSTER, Strain/Sex: SYRIAN/FEMALE, Target Tissue: Type of Lesion: LUNG: ADENOMA, Dose [Carcinogen]: 20 MG/KG BW 1/WK FOR 2 WK", "value": "83%, 87%, -4%, not significant"}, {"measurement": "tumour outcome (control, treated, inhibition, significance)", "setting": "Carcinogen: N-NITROSOBIS(2-OXOPROPYL)AMINE, 60599-38-4, 500 PPM IN DIET FOR 49 WK BEGINNING 1 WK POST CARCINOGEN LAST TREATMENT (STUDY DURATION: 51 WK), Species: HAMSTER, Strain/Sex: SYRIAN/FEMALE, Target Tissue: Type of Lesion: OVARY: CYSTADENOMA, Dose [Carcinogen]: 20 MG/KG BW 1/WK FOR 2 WK", "value": "3%, 3%, 0%, not significant"}, {"measurement": "tumour outcome (control, treated, inhibition, significance)", "setting": "Carcinogen: N-NITROSOBIS(2-OXOPROPYL)AMINE, 60599-38-4, 500 PPM IN DIET FOR 49 WK BEGINNING 1 WK POST CARCINOGEN LAST TREATMENT (STUDY DURATION: 51 WK), Species: HAMSTER, Strain/Sex: SYRIAN/FEMALE, Target Tissue: Type of Lesion: PANCREAS: ADENOCARCINOMA, Dose [Carcinogen]: 20 MG/KG BW 1/WK FOR 2 WK", "value": "86%, 90%, -4%, not significant"}, {"measurement": "tumour outcome (control, treated, inhibition, significance)", "setting": "Carcinogen: N-NITROSOBIS(2-OXOPROPYL)AMINE, 60599-38-4, 1000 PPM IN DIET FOR 49 WK BEGINNING 1 WK POST CARCINOGEN LAST TREATMENT (STUDY DURATION: 51 WK), Species: HAMSTER, Strain/Sex: SYRIAN/FEMALE, Target Tissue: Type of Lesion: LIVER: CHOLANGIOCELLULAR ADENOMA, Dose [Carcinogen]: 20 MG/KG BW 1/WK FOR 2 WK", "value": "31%, 34%, -11%, not significant"}, {"measurement": "tumour outcome (control, treated, inhibition, significance)", "setting": "Carcinogen: N-NITROSOBIS(2-OXOPROPYL)AMINE, 60599-38-4, 1000 PPM IN DIET FOR 49 WK BEGINNING 1 WK POST CARCINOGEN LAST TREATMENT (STUDY DURATION: 51 WK), Species: HAMSTER, Strain/Sex: SYRIAN/FEMALE, Target Tissue: Type of Lesion: LIVER: CHOLANGIOCELLULAR CARCINOMA, Dose [Carcinogen]: 20 MG/KG BW 1/WK FOR 2 WK", "value": "65%, 55%, 16%, not significant"}, {"measurement": "tumour outcome (control, treated, inhibition, significance)", "setting": "Carcinogen: N-NITROSOBIS(2-OXOPROPYL)AMINE, 60599-38-4, 1000 PPM IN DIET FOR 49 WK BEGINNING 1 WK POST CARCINOGEN LAST TREATMENT (STUDY DURATION: 51 WK), Species: HAMSTER, Strain/Sex: SYRIAN/FEMALE, Target Tissue: Type of Lesion: LIVER: HEPATOCELLULAR ADENOMA, Dose [Carcinogen]: 20 MG/KG BW 1/WK FOR 2 WK", "value": "72% 59%, 19%, not significant"}, {"measurement": "tumour outcome (control, treated, inhibition, significance)", "setting": "Carcinogen: N-NITROSOBIS(2-OXOPROPYL)AMINE, 60599-38-4, 1000 PPM IN DIET FOR 49 WK BEGINNING 1 WK POST CARCINOGEN LAST TREATMENT (STUDY DURATION: 51 WK), Species: HAMSTER, Strain/Sex: SYRIAN/FEMALE, Target Tissue: Type of Lesion: LIVER: HEPATOCELLULAR CARCINOMA, Dose [Carcinogen]: 20 MG/KG BW 1/WK FOR 2 WK", "value": "17%, 21%, -20%, not significant"}, {"measurement": "tumour outcome (control, treated, inhibition, significance)", "setting": "Carcinogen: N-NITROSOBIS(2-OXOPROPYL)AMINE, 60599-38-4, 1000 PPM IN DIET FOR 49 WK BEGINNING 1 WK POST CARCINOGEN LAST TREATMENT (STUDY DURATION: 51 WK), Species: HAMSTER, Strain/Sex: SYRIAN/FEMALE, Target Tissue: Type of Lesion: LUNG: ADENOCARCINOMA, Dose [Carcinogen]: 20 MG/KG BW 1/WK FOR 2 WK", "value": "33%, 39%, -18%, not significant"}, {"measurement": "tumour outcome (control, treated, inhibition, significance)", "setting": "Carcinogen: N-NITROSOBIS(2-OXOPROPYL)AMINE, 60599-38-4, 1000 PPM IN DIET FOR 49 WK BEGINNING 1 WK POST CARCINOGEN LAST TREATMENT (STUDY DURATION: 51 WK), Species: HAMSTER, Strain/Sex: SYRIAN/FEMALE, Target Tissue: Type of Lesion: LUNG: ADENOMA, Dose [Carcinogen]: 20 MG/KG BW 1/WK FOR 2 WK", "value": "83%, 89%, -7%, not significant"}, {"measurement": "tumour outcome (control, treated, inhibition, significance)", "setting": "Carcinogen: N-NITROSOBIS(2-OXOPROPYL)AMINE, 60599-38-4, 1000 PPM IN DIET FOR 49 WK BEGINNING 1 WK POST CARCINOGEN LAST TREATMENT (STUDY DURATION: 51 WK), Species: HAMSTER, Strain/Sex: SYRIAN/FEMALE, Target Tissue: Type of Lesion: PANCREAS: ADENOCARCINOMA, Dose [Carcinogen]: 20 MG/KG BW 1/WK FOR 2 WK", "value": "86%, 90%, -4%, not significant"}]}
